Among the data in US20200138827A1, “SMALL MOLECULE MODULATORS OF HUMAN STING” (Curadev Pharma Limited, priority 2017, published 2020) are EC50 values, retold here.

SMILES strings stand for the structures. Where a name gives a salt, the structure may show the parent alone.

As a reminder, the EC50 is the concentration needed to bring the measured effect to its halfway point.

The target of this assay is T1, WT/R232 STING protein (Homo sapiens, UniProt Q86WV6, H232R).
T1 construct: host or cells: HEK293T
Nature of the assay: Luciferase reporter assay in HEK293T-hSTING-Luciferase cells, WT/R232. It is filed as cell-based. Particulars: 20 hr stimulation, read-out: R232 Activity (EC50 range). The text has this: • a) Stable STING expressing cells—Stable HEK293T STING-expressing cell lines were generated using plasmids purchased from Invivogen, Calif., USA, that contain STING cDNA cloned into the pUNO-1 vector under hEF1-HTLV promoter and containing the Blasticidin selection cassette. The plasmids hSTING(R232), hSTING(H232), hSTING(HAQ) were directly procured from Invivogen while hSTING (AQ) and hSTING (Q) were derived from hSTING(HAQ) and hSTING (R232) plasmids respectively by using a PCR based site directed mutagenesis method. These vectors were individually transfected into HEK293T cells using Lipofectamine (Invitrogen) and transfected cells were selected under Blasticidin selection. These transfected cells were further subjected to clonal selection using the limiting dilution method to obtain clonally pure populations of HEK cells transfected with each of the above mentioned human STING variants. Only those clones were selected in which ligand independent activation of STING was minimal. • b) Stable Luciferase reporter gene expressing cells—Stable HEK293T Luciferase reporter gene expressing cell lines were generated using pCDNA4 plasmids under an IRF-inducible promoter. This promoter is comprised of five tandem interferon-stimulated response elements (ISRE) fused to an ISG54 minimal promoter. This vector was transfected into HEK293T cells using Lipofectamine (Invitrogen) and transfected cells were selected under Zeocin selection. These transfected cells were further subjected to clonal selection using the limiting dilution method to obtain clonally pure populations of HEK cells transfected the Luciferase reporter construct. Only those clones were selected in which ligand independent induction of luciferase was minimal.
5×10^5 clonally selected HEK293T-hSTING-Luciferase cells were seeded in 384-well plates in growth medium and stimulated with novel compounds. After 20 hr of stimulation supernatant were removed and secretary reporter gene activity were measured using the Quanti-Luc detection system (Invivogen) on a Spectramax i3X luminometer.
All compounds were first tested in a primary screen using WT/R232 STING protein to obtain a ‘fold-induction’ over baseline levels of protein activity.
For orientation: A reporter such as luciferase makes a cellular process visible.

T1 sequence (Q86WV6 whole entry H232R): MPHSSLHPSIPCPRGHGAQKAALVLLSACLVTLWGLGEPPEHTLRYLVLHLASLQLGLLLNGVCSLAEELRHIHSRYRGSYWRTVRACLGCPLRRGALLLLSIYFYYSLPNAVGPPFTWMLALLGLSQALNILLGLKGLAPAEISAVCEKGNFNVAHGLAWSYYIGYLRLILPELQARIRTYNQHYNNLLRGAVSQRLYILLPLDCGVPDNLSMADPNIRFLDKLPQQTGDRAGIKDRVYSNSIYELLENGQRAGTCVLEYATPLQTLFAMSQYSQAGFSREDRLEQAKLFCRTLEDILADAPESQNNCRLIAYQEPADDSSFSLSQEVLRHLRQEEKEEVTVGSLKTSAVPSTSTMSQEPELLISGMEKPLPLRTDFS

Turning to `NCc1cc(C(=O)NCc2c(F)cc(F)cc2F)cc2c1SCC(=O)N2Cc1ccc(F)cc1` [Example 224, 8-(aminomethyl)-4-(4-fluorobenzyl)-3-oxo-N-(2,4,6-trifluorobenzyl)-3,4-dihydro-2H-benzo[b][1,4] thiazine-6-carboxamide hydrochloride], the EC50 is over 10 µM. As for `O=C(NCc1c(F)cc(F)cc1F)c1ccc2c(c1)N(C(C(=O)O)c1ccccc1)C(=O)CS2` (stereo not drawn) [Example 113, 2-(3-oxo-6-((2,4,6-trifluorobenzyl)carbamoyl)-2H-benzo[b][1,4]thiazin-4(3H)-yl)-2-phenylacetic acid], the figure is over 10 µM; as for `O=C(NCc1ccco1)c1ccc2c(c1)N(CC(=O)N1CCc3ccccc31)C(=O)CS2` [Example 3, N-(furan-2-ylmethyl)-4-(2-(indolin-1-yl)-2-oxoethyl)-3-oxo-3,4-dihyrdo-2H-benzo[b-1,4]thiazine-6-carboxamide], over 10 µM; as for `Cc1ccc(CN2CCC(CNC(=O)c3ccc4c(c3)N(Cc3c(F)cccc3Cl)C(=O)CS4)CC2)cc1` [Example 128, 4-(2-chloro-6-fluorobenzyl)-N-((1-(4-methylbenzyl)piperidin-4-yl)methyl)-3-oxo-3,4-dihydro-2H-benzo[b][1,4]thiazine-6-carboxamide], over 10 µM. Regarding `Cc1nc(CN2C(=O)CSc3ccc(C(=O)NCc4ccco4)cc32)cs1` [Example 96, N-(furan-2-ylmethyl)-4-((2-methylthiazol-4-yl)methyl)-3-oxo-3,4-dihydro-2H-benzo[b-1,4]thiazine-6-carboxamide], the 50% effective concentration (EC50) is over 10 µM.

With `O=C(NCc1ccc(Cl)cc1)c1ccc2c(c1)N(Cc1ccccc1)C(=O)CS2` [Example 73, 4-benzyl-N-(4-chlorobenzyl)-3-oxo-3,4-dihydro-2H-benzo[b-1,4]thiazine-6-carboxamide], the EC50 is 1 to 10 µM. As for `O=C(NCc1cc2ccncc2o1)c1ccc2c(c1)N(Cc1cc(F)cc(F)c1)C(=O)CC2` [Example 272, 1-(3,5-difluorobenzyl)-N-(furo[2,3-c]pyridin-2-ylmethyl)-2-oxo-1,2,3,4-tetrahydroquinoline-7-carboxamide], the figure is over 10 µM; as for `O=C(NCc1ccco1)c1ccc2c(c1)N(Cc1ccccc1F)CCS2` [Example 247, 4-(2-fluorobenzyl)-N-(furan-2-ylmethyl)-3,4-dihydro-2H-benzo[b-1,4]thiazine-6-carboxamide], over 10 µM. The value for `O=C(NCc1ccco1)c1cc2c(cc1Br)SCC(=O)N2Cc1ccccc1F` [Example 228, 7-bromo-4-(2-fluorobenzyl)-N-(furan-2-ylmethyl)-3-oxo-3,4-dihydro-2H-benzo[b][1,4]thiazine-6-carboxamide] was over 10 µM. With `O=C(NCc1cnccn1)c1ccc2c(c1)N(Cc1ccccc1)C(=O)CS2` [Example 58, 4-benzyl-3-oxo-N-(pyrazin-2-ylmethyl)-3,4-dihydro-2H-benzo[b-1,4]thiazine-6-carboxamide], the EC50 is over 10 µM.

As to `Cc1cccc(C)c1CN1C(=O)CSc2ccc(C(=O)NCc3ccco3)cc21` [Example 13, 4-(2,6-dimethyl-benzyl)-N-(furan-2-ylmethyl)-3-oxo-3,4-dihydro-2H-benzo[b-1,4]thiazine-6-carboxamide], the EC50 was in the range of 1 to 10 µM. The value for `O=C(NCc1ccoc1)c1ccc2c(c1)N(Cc1ccccc1)C(=O)CS2` [Example 50, 4-benzyl-N-(furan-3-ylmethyl)-3-oxo-3,4-dihydro-2H-benzo[b-1,4]thiazine-6-carboxamide] was over 10 µM; that for `CC(NC(=O)c1ccc2c(c1)N(Cc1ccccc1)C(=O)CS2)c1ccco1` (stereo not drawn) [Example 68, 4-benzyl-N-(1-(furan-2-yl)ethyl)-3-oxo-3,4-dihydro-2H-benzo[b-1,4]thiazine-6-carboxamide] was over 10 µM. The value for `Cc1noc(CN2C(=O)CSc3ccc(C(=O)NCc4ccco4)cc32)n1` [Example 84, N-(furan-2-ylmethyl)-4-((3-methyl-1,2,4-oxadiazol-5-yl)methyl)-3-oxo-3,4-dihydro-2H-benzo[b-1,4]thiazine-6-carboxamide] was over 10 µM; that for `O=C(NCc1ccco1)c1cc(C2CC2)c2c(c1)N(Cc1ccccc1F)C(=O)CS2` [Example 227] was over 10 µM; that for `O=C(NCc1ccccc1Cl)c1ccc2c(c1)N(Cc1ccccc1Cl)C(=O)CS2` [Example 123, N,4-bis(2-chlorobenzyl)-3-oxo-3,4-dihydro-2H-benzo[b-1,4]thiazine-6-carboxamide] was over 10 µM. For `Cc1cc(CN2C(=O)CSc3ccc(C(=O)NCc4ccco4)cc32)no1` [Example 85, N-(furan-2-ylmethyl)-4-((5-methylisoxazol-3-yl)methyl)-3-oxo-3,4-dihydro-2H-benzo[b-1,4]thiazine-6-carboxamide], the EC50 is over 10 µM. The value for `O=C(NCC1CCCCC1)c1cnc2c(c1)N(Cc1c(F)cccc1Cl)C(=O)CS2` [Example 179, 1-(2-chloro-6-fluorobenzyl)-N-(cyclohexyl-methyl)-2-oxo-2,3-dihydro-1H-pyrido[2,3-b-1,4]thiazine-7-carboxamide] was over 10 µM; that for `CC(O)c1cc(C(=O)NCc2c(F)cc(F)cc2F)cc2c1SCC(=O)N2Cc1ccc(F)cc1` (stereo not drawn) [Example 223, 4-(4-fluorobenzyl)-8-(1-hydroxyethyl)-3-oxo-N-(2,4,6-trifluorobenzyl)-3,4-dihydro-2H-benzo[b][1,4] thiazine-6-carboxamide] was over 10 µM. As for `O=C(NCc1ccco1)c1ccc2c(c1)N(C(=O)c1ccccc1F)CCO2` [Example 263, 4-(2-fluorobenzoyl)-N-(furan-2-ylmethyl)-3,4-dihydro-2H-benzo[b-1,4]oxazine-6-carboxamide], the figure is over 10 µM. The value for `C[C@H](NC(=O)c1ccc2c(c1)N(Cc1ccccc1F)C(=O)CS2)C1CCCCC1` [Example 18, (S)-N-(1-cyclohexyl-ethyl)-4-(2-fluorobenzyl)-3-oxo-3,4-dihydro-2H-benzo[b-1,4]thiazine-6-carboxamide] was over 10 µM. On to `Cc1nnc(CN2C(=O)CSc3ccc(C(=O)NCc4ccco4)cc32)n1C` [Example 105, 4-((4,5-dimethyl-4H-1,2,4-triazol-3-yl)methyl)-N-(furan-2-ylmethyl)-3-oxo-3,4-dihydro-2H-benzo[b-1,4]thiazine-6-carboxamide], for which the EC50 is over 10 µM. As for `O=C(NCCc1ccccc1)c1ccc2c(c1)N(Cc1c(F)cccc1Cl)C(=O)CS2` [Example 129, 4-(2-chloro-6-fluorobenzyl)-3-oxo-N-phenethyl-3,4-dihydro-2H-benzo[b-1,4]thiazine-6-carboxamide], the figure is over 10 µM; as for `Cc1csc(CNC(=O)c2ccc3c(c2)N(Cc2ccccc2)C(=O)CS3)n1` [Example 65, 4-benzyl-N-((4-methylthiazol-2-yl)methyl)-3-oxo-3,4-dihydro-2H-benzo[b-1,4]thiazine-6-carboxamide], over 10 µM.

Turning to `NC(=O)c1cccc(CN2C(=O)CSc3ccc(C(=O)NCc4ccco4)cc32)c1` [Example 86, 4-(3-carbamoylbenzyl)-N-(furan-2-ylmethyl)-3-oxo-3,4-dihydro-2H-benzo[b-1,4]thiazine-6-carboxamide], the EC50 is over 10 µM. The value for `O=C(NCc1ccc2ccccc2c1)c1ccc2c(c1)N(Cc1ccccc1)C(=O)CS2` [Example 74, 4-benzyl-N-(naphthalen-2-ylmethyl)-3-oxo-3,4-dihydro-2H-benzo[b-1,4]thiazine-6-carboxamide] was 1 to 10 µM; that for `O=C(NCc1ccco1)c1ccc2c(c1)N(Cc1ccccc1)C(=O)CS2` [Example 111, 4-benzyl-N-(furan-2-ylmethyl)-3-oxo-3,4-dihydro-2H-benzo[b-1,4]thiazine-6-carboxamide] was over 10 µM; that for `CC1Sc2ccc(C(=O)NCc3c(F)cc(F)cc3F)nc2N(Cc2c(F)cccc2Cl)C1=O` (stereo not drawn) [Example 186, 4-(2-chloro-6-fluorobenzyl)-2-methyl-3-oxo-N-(2,4,6-trifluorobenzyl)-3,4-dihydro-2H-pyrido[3,2-b-1,4]thiazine-6-carboxamide] was 1 to 10 µM. The value for `CC1Sc2ccc(C(=O)NCCc3c(F)cc(F)cc3F)nc2N(Cc2cc(F)cc(F)c2)C1=O` (stereo not drawn) [Example 174, 4-(3,5-difluorobenzyl)-2-methyl-3-oxo-N-(2,4,6-trifluoro-phenethyl)-3,4-dihydro-2H-pyrido[3,2-b][1,4]thiazine-6-carboxamide] was over 10 µM; that for `O=C(NCC(c1ccccc1)C1CCCCC1)c1ccc2c(c1)N(Cc1c(F)cccc1Cl)C(=O)CS2` (stereo not drawn) [Example 43, 4-(2-chloro-6-fluorobenzyl)-N-(2-cyclohexyl-2-phenylethyl)-3-oxo-3,4-dihydro-2H-benzo[b][1,4] thiazine-6-carboxamide] was over 10 µM.
